Results: US7422883B2, “Map kinase integrin-binding domain” (Inter-K Pty Limited, priority 2000, dated 2008)
No end group written: not given here.

Tests used:
ERK2 = molecular target: T1, ERK2 (Mus musculus, UniProt P63085); assay: ELISA of ERK2 binding to biotinylated integrin cytoplasmic domain peptides
T1 construct: GST (glutathione-S-transferase); made in house
Procedure: Peptide fragments corresponding to regions of the cytoplasmic tail domain of the β6 subunit were screened in an enzyme-linked immunosorbent assay (ELISA) for binding with ERK2. The 52 amino acid long β6 cytoplasmic tail is shown in FIG. 16 as are the amino acid sequences for the cytoplasmic domains of the β1 to β3 subunits. In particular, four synthetic peptides designated fragment 1 to fragment 4 were prepared and biotinylated at the N-terminal end of each, respectively (Auspep Pty Ltd, Melbourne Australia).
Overlapping biotinylated fragments 1 to 4 were coated onto streptavidin coated polystyrene plates (Pierce, Rockford Ill. USA, Cat No. 15125) and the ELISA performed substantially according to manufacturers instructions. Briefly, wells are washed with 3×200 μl of wash buffer (TBS, 0.1% BSA, 0.05% Tween 20 or SuperBlock™ blocking buffer in TBS, Pierce, Prod. No. 37535) prior to addition of biotinylated peptides (100 μl) and incubation for 1 hr at room temperature to allow for capture of the peptides on the plate. Following another washing step, peptides were overlayed with GST-ERK, ERK (or JNK-1) alone at a volume of 100 μl per well, and the plates incubated for a further 1 hr at room temperature before removal of any unbound ERK by further washing.
Binding of ERK to the peptides is detected using 100 μl anti-ERK1/2 mAb SC1647 (Santa Cruz) as the primary antibody at a dilution of 1:700 (isotype matched antibody IgG2b is used as a control). This is followed by another washing step and addition of 100 μl rabbit anti-mouse antibody (Biorad) conjugated to alkaline phosphatase at a concentration of 1:1000 for 30 minutes again at room temperature. A […] of detection reagent (alkaline phosphatase detection kit-Biorad) is then introduced into each well after a final washing step and allowed to react for 15-30 minutes at room temperature in the dark before absorbance is measured at 405 nm. All dilutions of peptides, MAP kinase and antibodies were performed using the wash buffer. GST-ERK is a fusion protein consisting of ERK coupled to glutathione-S-transferase and purified from host cells transfected with pGEX vector.
To further localise the binding domain on the cytoplasmic tail of the β6 subunit, progressively shorter peptides from the region of the β6 cytoplasmic tail corresponding to peptide fragment 2 were synthesised, biotinylated and the capacity to associate or otherwise bind to ERK2 assessed as described above. The binding of GST.ERK2 to a 15 mer test peptide (seq. 4) having the amino acid sequence RSKAKWQTGTNPLYR (SEQ ID NO: 7) and a 10 mer test peptide having the sequence RSKAKWQTGT (SEQ ID NO: 21) is shown in FIG. 20 compared to fragment 2 over a range of concentrations of the peptides. […] 4 peptide compared to fragment 2 was found. Binding of ERK2 to the seq. 3 peptide was substantially less than that observed for seq. 4.
Binding of ERK2 to the seq.4 peptide (RSKAKWQTGTNPLYR) (SEQ ID NO: 7) was compared with peptides corresponding to regions of the cytoplasmic domain of integrin subunits β1, β2, β3 and β5. The amino acid sequences for those peptides is shown below:
To evaluate this, cell lysates containing equal protein loads were prepared from SW480 wild-type cells and SW480 cells transfected with either vector alone (mock transfectants), wild type β6 or the β6 deletion mutant Δ746-764 (lacking the sequence EAERSKAKWQTGTNPLYRG (SEQ ID NO: 26), Cone et al, 1994). The lysates were immunoprecipitated with mAbs R6G9 (anti-β6), P1F6 (anti-β5) or murine IgG control antibody (mlgG). […] To determine whether β5 can bind ERK2 in vitro, a 15-mer peptide fragment derived from the β5 cytoplasmic domain corresponding to the ERK binding domain on β6 was tested for its ability to bind ERK2 in an ELISA.

HT29 colon cancer cells = assay: WST-1 growth inhibition study, HT29; type: cell-based, human; conditions: HT29, 10 μm, 24 hours, serum-free; FIG. 28
Procedure: (§1) HT29 and SW480 β6-expressing colon cancer cell lines were seeded into wells of 96-well microtitre plates (Nunclon) in Dulbecco's Modified Eagle's Medium (DMEM) supplemented with 10% foetal bovine serum, glutamine, Hepes, and antibiotics. […] The cell proliferation reagent WST-1 is designed to be used for the non-radioactive, spectrophotometric quantification of cell growth and viability in proliferation and chemosensitivity assays. […]
(§2) Specifically, at the termination of experiments, 30 μl of WST-1 was added to 270 μl culture medium volume in each microtitre well and the colour change quantitated in an ELISA plate reader by measuring absorbance of the formazan product at […] (using a reference wavelength of more than 600 nm). The mean absorbance readings from triplicate wells (±standard error of the means) after subtraction of background control wells (culture medium without cells) was determined.

SW480 cells = assay: In vitro wound assay (cell migration); type: cell-based, human; conditions: SW480 lacking αvβ6, 1.25-10 μM, 48 hours, 1% foetal calf serum; FIG. 40
Procedure: The wound assay was performed by seeding 2×10^5 cells into 24 well (1.6 cm diameter) tissue culture plates in Dulbecco's modified Eagles medium (DMEM) supplemented by 10% foetal calf serum, HEPES, glutamine and antibiotics. The confluent cell monolayers were streaked with the tip of a plastic pipette in a cross-wire fashion, and loose non-adherent cells washed off gently with medium before replacing the culture medium with DMEM supplemented with 1% foetal calf serum. In addition, RSKAKWQTGTNPLYR (SEQ ID NO: 7) peptide ligated to penetratin (carrier peptide) by means of cysteine Cys (Npys) bonding was added to each well at a final concentration in the range of 1.25-10 μM. Cell migration across the wounded (streaked) area was photographed (Techpan, Kodachrome, ASA100) after a further 48 hours in culture. […] The conditions utilised in the assay were as follows: A: no peptide-penetratin complex added, B: 2.5 μM peptide-penetratin complex added, C: 5 μM peptide-penetratin complex added, D: 10 μM peptide-penetratin complex added.

SW480 β6 transfectants = assay: WST-1 growth inhibition, SW480 β6-expressing cells; type: cell-based, human; conditions: 30 μm, 24 hours, serum-free, FIG. 29
Procedure: as §1, §2
[…] Percentage inhibition was assessed by the WST-1 colorimetric dehydrogenase assay described in Example 6. […]

T1 sequence (P63085 whole entry, the tested form may be a part): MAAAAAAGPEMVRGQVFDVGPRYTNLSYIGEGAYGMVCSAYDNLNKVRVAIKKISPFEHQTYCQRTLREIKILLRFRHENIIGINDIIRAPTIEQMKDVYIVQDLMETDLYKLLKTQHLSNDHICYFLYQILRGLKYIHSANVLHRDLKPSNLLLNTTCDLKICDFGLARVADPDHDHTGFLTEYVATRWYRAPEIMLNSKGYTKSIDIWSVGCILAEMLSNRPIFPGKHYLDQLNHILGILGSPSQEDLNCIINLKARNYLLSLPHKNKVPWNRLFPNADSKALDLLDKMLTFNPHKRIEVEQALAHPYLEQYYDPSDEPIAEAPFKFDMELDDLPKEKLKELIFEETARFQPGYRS

binding of ERK2 to integrin subunit peptides (ERK2; corrected for non-specific binding, FIG. 34): significant binding
binding of GST.ERK2 to peptide (ERK2; over a range of concentrations of the peptides, compared to fragment 2, FIG. 20): no reduction in binding
Sequence: RSKAKWQTGTNPLYR (also: biotinylated, site not given here) [seq. 4, 15 mer fragment of the β6 cytoplasmic domain]
inhibition of cell proliferation (WST-1) (HT29 colon cancer cells): Only the carrier penetratin-peptide complex was effective in inhibiting cell proliferation in contrast to either peptide or penetratin alone
cell migration across wounded area (wound repair) (SW480 cells): not stimulated
inhibition of cell proliferation (WST-1) (SW480 β6 transfectants): Only the carrier penetratin-peptide complex was effective in inhibiting cell proliferation in contrast to either peptide or penetratin alone
